For data set [1] the following is noted: instrument: DT, stepped-field.
The conditions of data set [2]: instrument: DT, single field, calibrated with Agilent tune mix (Agilent).
The conditions of data set [3]: instrument: DT, stepped-field. This is another data set of the same source.

Each structure is given as a SMILES string.

As for `CCCCCCCCCCCCC=CC[C@@H](O)[C@H](CO)NC(=O)CCCCCCCCCCCCCCCCCCC` [Cer(38:01)], the “collision cross section (N2)” value in data set [1] ([M+H-H2O]+) is given as 263.93 Å².

As to `CCCCCCCCCCCCC=CC[C@@H](O)[C@H](CO)NC(=O)CCCCCCCCCCCCCCCCCCCCC` [Cer(40:01)], the “collision cross section (N2)” value in data set [1] ([M+H-H2O]+) came out at 269.41 Å².

Turning to `CCCCCCCCCCCCC=CC[C@@H](O)[C@H](CO)NC(=O)CCCCCCCCCCCCCCCCCCCCCC` [Cer(41:01)], in data set [1] ([M+H-H2O]+), the “collision cross section (N2)” value is given as 272.16 Å².

As for `CCCCCCCCCCCCC=CC[C@@H](O)[C@H](CO)NC(=O)CCCCCCCCCCCCCCCCCCCCCCC` [Cer(42:01)], the “collision cross section (N2)” value in data set [1] ([M+H-2H2O]+) came to 273.88 Å²; in data set [1] ([M+H-H2O]+) it was 275.06 Å²; in data set [1] ([M+H]+), 277.56 Å².

As for `CCCCCCCCCCCCC=CC[C@@H](O)[C@H](CO)NC(=O)CC=CCCCCCCCCCCCCCCCCCCCC` [Cer(42:02)], the “collision cross section (N2)” value in data set [1] ([M+H-2H2O]+) came out at 271.35 Å²; in data set [1] ([M+H-H2O]+) it was 273.26 Å²; in data set [1] ([M+H]+) it was 276.77 Å².

Turning to `CCCCCCCCCCCCC=CC[C@@H](O)[C@H](CO)NC(=O)CC=CCC=CCCCCCCCCCCCCCCCCC` [Cer(42:03)], the “collision cross section (N2)” value is recorded as 271.44 Å² in data set [1] ([M+H-H2O]+) and 275.18 Å² in data set [1] ([M+H]+).

Regarding `CCCCCCCCCCCCCCCC(=O)N[C@@H](CO[C@@H]1O[C@H](CO)[C@@H](O)C(O)C1O)[C@H](O)CCCCCCCCCCCCCCC` (stereo partly specified) [GlcCer(34:00)], the “collision cross section (N2)” value in data set [1] ([M+Na]+) came to 280.92 Å².

On to `CCCCCCCCCCCCC=CC[C@@H](O)[C@H](CO[C@@H]1O[C@H](CO)[C@@H](O)C(O)C1O)NC(=O)CCCCCCCCCCCCCCCCC` (stereo partly specified) [GlcCer(36:01)], for which the “collision cross section (N2)” value in data set [1] ([M+Cl]-) was found to be 284.18 Å²; in data set [1] ([M+H-H2O]+), 279.86 Å²; in data set [1] ([M+HCOO]-), 287.29 Å²; in data set [1] ([M+H]+) it was 282.43 Å²; in data set [1] ([M+Na]+), 284 Å².

With `CCCCCCCCCCCCC=CC[C@@H](O)[C@H](CO[C@@H]1O[C@H](CO)[C@@H](O)C(O)C1O)NC(=O)CCCCCCCCCCCCCCCCCC` (stereo partly specified) [GlcCer(37:01)], the “collision cross section (N2)” value in data set [1] ([M+Na]+) is 287.43 Å².

As to `CCCCCCCCCCCCCCCCCCCC(=O)N[C@@H](CO[C@@H]1O[C@H](CO)[C@@H](O)C(O)C1O)[C@H](O)CCCCCCCCCCCCCCC` (stereo partly specified) [GlcCer(38:00)], the “collision cross section (N2)” value is listed as 290.18 Å² in data set [1] ([M+H]+) and 291.27 Å² in data set [1] ([M+Na]+).

`CCCCCCCCCCCCC=CC[C@@H](O)[C@H](CO[C@@H]1O[C@H](CO)[C@@H](O)C(O)C1O)NC(=O)CCCCCCCCCCCCCCCCCCC` (stereo partly specified) [GlcCer(38:01)]: the “collision cross section (N2)” value in data set [1] ([M+H-H2O]+) turned out to be 286.62 Å²; in data set [1] ([M+H]+), 288.15 Å²; in data set [1] ([M+Na]+), 290.52 Å².

With `CCCCC[C@H](O)/C=C/[C@@H]1[C@H]2C/C(=C/CCCC(=O)O)O[C@H]2C[C@H]1O` [Prostaglandin I2], the “collision cross section (N2)” value is listed as 198.6 Å² in data set [2] ([M+H]+), 186.84 Å² in data set [2] ([M-H]-), 201.3 Å² in data set [3] ([M+H]+) and 196.67 Å² in data set [3] ([M+Na]+).

Consider `Cn1cnc2c1c(=O)[nH]c(=O)n2C` [Theobromine], for which the “collision cross section (N2)” value in data set [2] ([M-H]-) came to 135.25 Å²; in data set [3] ([M+H]+), 134.37 Å².

`Cn1c(=O)c2[nH]cnc2n(C)c1=O` [Theophylline]: the “collision cross section (N2)” value in data set [2] ([M+H]+) is reported as 137.6 Å²; in data set [2] ([M-H]-), 130.14 Å²; in data set [3] ([M+H]+), 143.06 Å²; in data set [3] ([M+Na]+), 149.63 Å².

As to `OC[C@@H](O)C(O)[C@@H](O)CO` (stereo partly specified) [Xylitol], the “collision cross section (N2)” value in data set [2] ([M+Na]+) came out at 135.3 Å²; in data set [2] ([M-H]-), 122.4 Å²; in data set [3] ([M+Na]+), 140.79 Å².

For the origin of these results see the C3SDB collision cross section collection.
